22 compounds from US6645976B1 (Eli Lilly and Company, priority 1994, dated 2003) can be followed below.

For series [1], the target named is T1, recombinant human secreted phospholipase A2 (Homo sapiens, UniProt P14555).
T1 sequence (P14555 21-144): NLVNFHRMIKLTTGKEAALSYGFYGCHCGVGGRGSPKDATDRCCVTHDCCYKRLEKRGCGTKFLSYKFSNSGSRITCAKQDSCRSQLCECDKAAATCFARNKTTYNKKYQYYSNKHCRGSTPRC
Briefly: sPLA2 Chromogenic Assay (Assay 1). The series is classed as biochemical. Conditions: diheptanoyl thio-PC substrate, pH 7.5, 40° C. for 30 minutes, absorbance at 405 nanometers.
Protocol: The following chromogenic assay procedure was used to identify and evaluate inhibitors of recombinant human secreted phospholipase A2. The assay described herein has been adapted for high volume screening using 96 well microtiter plates.
A measured volume of racemic dipheptanoyl thio PC supplied in chloroform at a concentration of 100 mg/ml is taken to dryness and redissolved in 10 millimolar TRITON X-100™ nonionic detergent aqueous solution. Reaction Buffer is added to the solution, then DTNB to give the Reaction Mixture.
The reaction mixture thus obtained contains 1 mM diheptanoyl thio-PC substrate, 0.29 mm Triton X-100™ detergent, and 0.12 mm DTMB in a buffered aqueous solution at pH 7.5.
1. Add 0.2 ml reaction mixture to all wells;
2. Add 10 ul test compound (or solvent blank) to appropriate wells, mix 20 seconds;
3. Add 50 nanograms of sPLA2 (10 microliters) to appropriate wells;
4. Incubate plate at 40° C. for 30 minutes;
All compounds were tested in triplicate. […] Each sample was titrated in triplicate and result values were averaged for plotting and calculation of IC50 values.

Consider `CCc1c(C(=O)C(N)=O)c2c(OCC(=O)OC)cccn2c1Cc1sccc1-c1cccs1` [Compound 51l, 2-(8-(Carbomethoxymethyloxy)-2-ethyl-3-((3-thiophen-2-yl)thiophen-2-ylmethyl)indolizin-1-yl)glyoxylamide], for which the melting point was in the range of 176 to 177 °C. Moreover, the IC50 in series [1] came to 96 nM.
Regarding `CCc1c(C(=O)C(N)=O)c2c(OCC(=O)OC)cccn2c1Cc1cccc(OC)c1` [Compound 51m, 2-(2-Ethyl-8-(carbomethoxymethyloxy)-3-(m-methoxybenzyl)indolizine-1-yl)glyoxylamide], the melting point lay within 155 to 157 °C. Also, the IC50 in series [1] came to 310 nM.
Compound `CCCCc1ccc(Cc2c(CC)c(C(=O)C(N)=O)c3c(OCC(=O)OC)cccn23)cc1` [Compound 51s, 2-(3-(p-n-Butylbenzyl)-8-(carbomethoxymethyloxy)-2-ethylindolizin-1-yl)glyoxylamide] yielded a melting point of 174 to 176 °C. In addition, the IC50 in series [1] worked out at 150 nM.
Turning to `COC(=O)COc1cccn2c(CC3CCCCC3)c(C)c(C(=O)C(N)=O)c12` [Compound 51t], the melting point was in the range of 177 to 178 °C. The IC50 in series [1] stood at 130 nM.
In turn, `CCCC(CCC)Cc1c(CC)c(C(=O)C(N)=O)c2c(OCC(=O)O)cccn12` [Compound 52f, 2-(8-Carboxymethyloxy-2-ethyl-3-(2-propylpentyl)indolizin-1-yl)glyoxylamide] returned a melting point of 176 to 177 °C. Further, the IC50 in series [1] was determined as 17 nM.
With `CCc1c(C(=O)C(N)=O)c2c(OCC(=O)O)cccn2c1Cc1sccc1-c1cccs1` [Compound 52l, 2-(8-(Carboxymethyloxy)-2-ethyl-3-((3-thiophen-2-yl)thiophen-2-ylmethyl)indolizin-1-yl)glyoxylamide], the melting point was 209 to 210 °C. Moreover, the IC50 in series [1] stood at 10 nM.
Turning to `CC(C)(C)c1c(C(=O)C(N)=O)c2c(OCC(=O)O)cccn2c1Cc1ccccc1-c1ccccc1` [Compound 58e, 2-(2-t-Butyl-8-carboxymethoxyl-3-(o-phenylbenzyl)indlolin-1-yl)glyoxylamide], the melting point fell in the range of 221 to 222 °C. The IC50 in series [1] came to 100 nM.
In turn, `NC(=O)C(=O)c1c(C2CCCC2)c(Cc2ccccc2-c2ccccc2)n2cccc(OCC(=O)O)c12` [Compound 58f, 2-(8-Carboxymethyloxy-2-cyclopentyl-3-(o-phenylbenzyl)indlolin-1-yl)glyoxylamide] showed a melting point of 147 to 148 °C. Further, in series [1], the IC50 was found to be 280 nM.
Taken in the same sequence, the figures for `CCc1c(C(=O)C(N)=O)c2c(OCC(=O)O)cccn2c1Cc1cccc(-c2ccccc2)c1` [Compound 58g, 2-(8-Carboxymethyloxy-2-ethyl-3-(m-phenylbenzyl)indlolin-1-yl)glyoxylamide] were 241 to 244 °C and 9 nM.
`CCc1c(C(=O)C(N)=O)c2c(OCC(=O)O)cccn2c1CC=Cc1ccccc1` [Compound 58h, 2-(8-Carboxymethyloxy-2-ethyl-^3-(3-phenyl-2-propenyl)indlolin-1-yl)glyoxylamide] registered a melting point of 222 to 224 °C. Further, the IC50 in series [1] amounted to 38 nM.
As to `CCc1c(C(=O)C(N)=O)c2c(OCC(=O)O)cccn2c1CCCc1ccccc1` [Compound 58i, 2-(8-Carboxymethyloxy-2-ethyl-3-(3-phenyl-2-propanyl)indlolin-1-yl)glyoxylamide], the melting point fell in the range of 215 to 217 °C. Moreover, the IC50 in series [1] is 51 nM.
For the compound `NC(=O)C(=O)c1c(C2CC2)c(Cc2cccc3ccccc23)n2cccc(OCC(=O)O)c12` [Compound 58j, 2-(8-carboxymethoxyl-2-cyclopropyl-3-(1-naphthylmethyl)indlolin-1-yl)glyoxylamide], the melting point was in the range of 205 to 207 °C. The concentration for half-maximal inhibition (IC50) in series [1] came out at 23 nM.
For `NC(=O)C(=O)c1c(C2CC2)c(CC2CCCCC2)n2cccc(OCC(=O)O)c12` [Compound 58k, 2-(8-carboxymethoxyl-3-cyclohexylmethyl-2-cyclopropylindolizin-1-yl)glyoxylamide], the melting point lay in the range of 229 to 234 °C. The IC50 in series [1] stood at 43 nM.
For `CCc1c(C(=O)C(N)=O)c2c(OCC(=O)OCC(=O)OC(C)(C)C)cccn2c1Cc1ccccc1-c1ccccc1` [Compound 59d], the melting point was in the range of 102 to 104 °C. Also, the IC50 in series [1] was found to be 83 nM.
Compound `CCc1c(C(=O)C(N)=O)c2c(OCC(=O)OC(C)OC(=O)OC3CCCC3)cccn2c1Cc1ccccc1-c1ccccc1` (centres unmarked) [Compound 59g, 2-(3-Biphenyl-2-ylmethyl-8-(1-cyclopentyloxycarbonyloxyethyloxycarbonylmethyloxy)-2-ethylindolizin-1-yl)glyoxylamide] had a melting point of 74 to 80 °C. Also, the IC50 in series [1] came out at 39 nM.
With `CCc1c(C(=O)C(N)=O)c2c(OCC(=O)OCCN3CCOCC3)cccn2c1Cc1ccccc1-c1ccccc1` [Compound 59i, 2-(3-(Biphenyl-2-yl-methyl)-2-ethyl-8-(2-morpholinoethyloxycarbonylmethyloxy)indolizine-1-yl)glyoxylamide], the melting point was 113 to 120 °C (dec.). Further, in series [1], the IC50 is 22 nM.
For `CCc1c(C(=O)C(N)=O)c2c(OCC(=O)OCC(C)=O)cccn2c1Cc1ccccc1-c1ccccc1` [Compound 59k, 2-(3-(Biphenyl-2-yl-methyl)-2-ethyl-8-(2-oxopropyloxycarbonylmethoxy)indolizine-1-yl)glyoxylamide], in that order: 159 to 162 °C and 113 nM.
With `CCc1c(C(=O)C(N)=O)c2c(OCc3nnn[nH]3)cccn2c1Cc1ccccc1-c1ccccc1` [Compound 59m, 2-(3-(Biphenyl-2-yl-methyl)-2-ethyl-8-(1H-tetracol-5-ylmethyloxy)indolizine-1-yl)glyoxylamide], the melting point was 206 to 209 °C (dec.). The IC50 in series [1] stood at 7 nM.
Compound `Cc1c(C(=O)C(N)=O)c2c(OCc3ccccn3)cccn2c1Cc1ccccc1-c1ccccc1` [Compound 59n, 2-(3-Biphenyl-2-ylmethyl-2-methyl-8-(pyridin-2-ylmethoxy)-indolizin-1-yl)-glyoxylamide] returned a melting point of 196 to 197 °C. In series [1], the IC50 turned out to be 600 nM.
As to `Cc1c(C(=O)C(N)=O)c2c(OCc3ccncc3)cccn2c1Cc1ccccc1-c1ccccc1` [Compound 59o, 2-(3-Biphenyl-2-ylmethyl-2-methyl-8-(pyridin-4-ylmethoxy)-indolizin-1-yl)-glyoxylamide], the melting point was 195 to 197 °C. Further, the IC50 in series [1] was determined as 490 nM.
The compound `Cc1c(C(=O)C(N)=O)c2c(OCc3ccc4ccccc4n3)cccn2c1Cc1ccccc1-c1ccccc1` [Compound 59p, 2-(3-Biphenyl-2-ylmethyl-2-methyl-8-(quinolin-2-ylmethoxy)-indolizin-1-yl)-glyoxylamide] yielded a melting point of 165 to 167 °C. Further, the IC50 in series [1] turned out to be 200 nM.
Turning to `CCc1c(C(=O)C(N)=O)c2c(OCCC(=O)OC)cccn2c1Cc1ccccc1-c1ccccc1` [Compound 70c, 2-(3-(Biphenyl-2-yl-methyl)-8-(2-carbomethoxyethyloxy)-2-ethylindolizine-1-yl)glyoxylamide], the melting point is 159 to 162 °C. Moreover, the IC50 in series [1] is 130 nM.

Usually IC50 stands for the concentration that inhibits the measured activity by half. As a reminder, the melting point is the temperature of the solid-liquid transition.
